The record followed here is patent publication US10071099B2, “Medicament for suppressing malignant tumor metastasis” (NATIONAL CEREBRAL AND CARDIOVASCULAR CENTER, priority 2014, dated 2018).

For series [1], the system named is mouse melanoma B16-F10. The series can be described thus: Blood-borne lung metastasis model, mouse melanoma tail vein injection (LPS). The series is classed as in vivo. As to conditions: for LPS-induced lung metastasis of tumor cells (nodules): 30 mg/kg-day oral from 4 days before LPS, LPS 1 mg/kg tail vein 4 to 5 hours before B16-F10 injection, 14 days after tumor cell injection, C57BL6 mice. The method, then: Lung Metastasis Suppressing Effect of Medicament in Blood-Borne Metastasis Model Established by Injection of Mouse Melanoma to Mouse Tail Vein (LPS)
Eight-week-old male C57BL6 mice (purchased from Japan SLC, Inc.) were used. Lipopolysaccharide (LPS) in an amount of 1 mg/kg was injected to the tail vein of each mouse, and mouse melanoma B16-F10 was injected to the tail vein 4 to 5 hours later. At this time, mouse melanoma was injected into the tail vein on the different side from the tail vein to which LPS was injected. Mouse melanoma B16-F10 was purchased from ATCC, and cultured in DMEM (Life Technologies Corp.) containing 10% FCS under 5% CO2 at 37° C. The cells in a semiconfluent state were treated with EDTA-trypsin (a 0.01 to 0.125% solution) and then centrifuged. As an angiotensin type 2 receptor agonist, Compounds A to E were used. The cells were suspended in serum free DMEM so as to be 3×10^6 cells/mL for Compound A administration group, and 2×10^6 cells/mL for Compound B to E administration groups. The melanoma cell suspension ([…]) at a density of 3×10^5 cells for Compound A administration group or at a density of […] for Compound B to E administration groups was injected to the tail vein of the mice.
To the angiotensin type 2 receptor agonist group, a 0.5% carboxymethylcellulose aqueous solution (0.2 mg/mL) prepared so as to contain 30 mg/kg-day of the agent (each of Compounds A to E) was orally given from 4 days before the start of the LPS administration to the end of the experiment (14 days after the injection of melanoma cells) in a continuous manner. To the control group, LPS was not injected, and only a 0.5% carboxymethylcellulose aqueous solution not containing the agent (any of Compounds A to E) was orally given for the experiment.
In addition, for the purpose of comparison, an experiment in which LPS was not injected and Compound A was orally administered and an experiment in which LPS was injected and the 0.5% carboxymethylcellulose aqueous solution not containing the agent (any of Compounds A to E) was orally given were performed. […]

For series [2], the system named is mouse melanoma B16-F10. In words: Blood-borne lung metastasis model, mouse melanoma tail vein injection (CDDP). The series is classed as in vivo. The procedure: Lung Metastasis Suppressing Effect of Medicament in Blood-Borne Metastasis Model Established by Injection of Mouse Melanoma to Mouse Tail Vein (CDDP)
Eight-week-old male C57BL6 mice (purchased from Japan SLC, Inc.) were used. Mouse melanoma B16-F10 was purchased from ATCC, and cultured in Dulbecco's Modified Eagle Medium (DMEM) (Life Technologies Corp.) containing 10% fetal calf serum (FCS) under 5% CO2 at 37° C. The cells in a semiconfluent state were treated with EDTA-trypsin (a 0.01 to 0.125% solution), centrifuged, and then suspended in serum free DMEM so as to be 3×10^6 cells/mL. The melanoma cell suspension (100 μL/mouse, 3×10^5 cells) was injected to the tail vein of the mice.
As pretreatment, 2.5 mg/kg of cisplatin (CDDP) was injected to the tail vein of the mice 2 days before the injection of the melanoma cells into the tail vein.
As an angiotensin type 2 receptor agonist, Compound A was used.
To the angiotensin type 2 receptor agonist group, a 0.5% carboxymethylcellulose aqueous solution prepared so as to contain 30 mg/kg of Compound A was orally given from 4 days before the start of the CDDP administration to the end of the experiment (14 days after the injection of melanoma cells) in a continuous manner.
To the control group, CDDP was not injected, and only a 0.5% carboxymethylcellulose aqueous solution not containing the agent was orally given for the experiment.
In addition, for the purpose of comparison, an experiment in which CDDP was not injected and Compound A was orally administered and an experiment in which CDDP was injected and the 0.5% carboxymethylcellulose aqueous solution not containing the agent (Compound A) was orally given were performed.
The number of animals in each group was n=5.
The lung metastasis of the tumor cells 14 days after the tumor cell injection was observed. […]

On to `CCN(CC)C(=O)[C@H](Cc1ccc(NC(=O)c2ccc(Cl)cc2N)cc1)C(=O)NS(=O)(=O)c1ccc2ccccc2c1` [Compound E, (2S)-2-{4-[(2-amino-4-chlorobenzoyl)amino]benzyl}-N,N-diethyl-N′-(2-naphthylsulfonyl)malonamide], for which, in the series with mouse melanoma B16-F10 [1], the “LPS-induced lung metastasis of tumor cells (nodules)” value is reported as “significantly suppressed the lung metastasis of tumor cells”.

Turning to `N.N.[Cl][Pt][Cl]` [cisplatin (CDDP), cisplatin, reference compound], the “effect of cisplatin (CDDP) administration on lung metastasis of tumor cells” value with mouse melanoma B16-F10 [2] (CDDP 2.5 mg/kg tail vein 2 days before B16-F10 injection, 14 days after tumor cell injection) is given as “augmented the lung metastasis of tumor cells”.

As to `CCN(CC)C(=O)[C@H](Cc1ccc(NC(=O)c2ccccc2)cc1)C(=O)NS(=O)(=O)c1ccc2ccccc2c1` [Compound A, (2S)-2-[4-(benzoylamino)benzyl]-N,N-diethyl-N′-(2-naphthylsulfonyl)malonamide], the “CDDP-induced exacerbation of the lung metastasis of tumor cells (nodules)” value in the series with mouse melanoma B16-F10 [2] (30 mg/kg oral from 4 days before CDDP, CDDP 2.5 mg/kg tail vein 2 days before B16-F10 injection, 14 days after tumor cell injection, C57BL6 mice) was “significantly suppressed the CDDP-induced exacerbation of the lung metastasis”. Also, the “lung metastasis of tumor cells without CDDP administration” value in the series on mouse melanoma B16-F10 [2] (30 mg/kg oral, no CDDP, 14 days after B16-F10 tail vein injection, C57BL6 mice) is listed as “capable of suppressing the lung metastasis of tumor cells”. For the same molecule, in the series with mouse melanoma B16-F10 [1], the “LPS-induced lung metastasis of tumor cells (nodules)” value was “significantly suppressed the lung metastasis of tumor cells”. In addition, the “lung metastasis of tumor cells without LPS administration” value in the series on mouse melanoma B16-F10 [1] (30 mg/kg-day oral, no LPS, 14 days after B16-F10 tail vein injection) was “suppresses the lung metastasis of tumor cells”.
